Reference: patent US9718905B2, “Polythiophene, water-soluble electrically conductive polymer using it, and method for producing it” (TOSOH CORPORATION, priority 2012, dated 2017)

How the values were obtained:
[1] = Water solubility of thiophene compound (monomer); format: physicochemical
Description: The thiophene compound used as the material is more preferably one having water solubility to such an extent that it is dissolved in water at room temperature or with heating in an amount of at least 0.5 wt %.
The thiophene compound used as a material is more preferably one having water solubility to such an extent that it is soluble in water at room temperature or with heating in an amount of at least 0.5 wt %.

[2] = Storage and handling in air; format: physicochemical

Row | Structure (SMILES) | water solubility ([1]; at room temperature) | storage and handling in air [2] | water solubility ([1]; temperature not stated)
1 | O=S(=O)([O-])CCCCCCC1COc2cscc2O1.[Na+] (stereo not drawn) [Example 4, sodium 6-(2,3-dihydro-thieno[3,4-b][1,4]dioxin-2-yl)-1-hexanesulfonate] | at least 1 wt % | could be stored and handled in air | 
2 | O=S(=O)([O-])c1ccc(OCC2COc3cscc3O2)cc1.[K+] (stereo not drawn) [Example 17, Potassium O-(2,3-dihydro-thieno[3,4-b][1,4]dioxin-2-ylmethyl)-4-phenolsulfonate] |  | could be stored and handled in air | at least 1 wt %
3 | O=S(=O)([O-])c1ccc(OCC2COc3cscc3O2)cc1.[Na+] (stereo not drawn) [Example 18, sodium O-(2,3-dihydro-thieno[3,4-b][1,4]dioxin-2-ylmethyl)-4-phenolsulfonate] |  | could be stored and handled in air | at least 1%
4 | CN(CCS(=O)(=O)[O-])CC1COc2cscc2O1.[Na+] (stereo not drawn) [Example 2, Sodium N-methyl-N-(2,3-dihydro-thieno[3,4-b][1,4]dioxin-2-ylmethyl)-2-aminoethanesulfonate] | at least 1 wt % | could be stored and handled in air | 
5 | O=S(=O)([O-])CCNCC1COc2cscc2O1.[K+] (stereo not drawn) [Example 1, Potassium N-(2,3-dihydro-thieno[3,4-b][1,4]dioxin-2-ylmethyl)-2-aminoethanesulfonate] | at least 1 wt % | could be stored and handled in air | 
6 | O=S(=O)([O-])CC1COc2cscc2O1.[Na+] (stereo not drawn) [Example 3, Sodium 2,3-dihydro-thieno[3,4-b][1,4]dioxin-2-ylmethanesulfonate] | at least 1 wt % | could be stored and handled in air | 
